The text below walks through data of paper PMC4332636, “In Vitro and In Vivo Toxicity Profiling of Ammonium-Based Deep Eutectic Solvents” (PLoS ONE, 2015).

≈ marks a conversion by molar mass, not a printed value. Read-outs that look alike come from different tables or passages of the source.

Details of data set [1]: method as in PMID 18512987, PMID 19661306. The settings on record: previously reported; cited from earlier work.
The next data set concerns ICR mice. Briefly: Acute toxicity (LD50) in ICR mice. The data set is classed as in vivo. The note with it: mortality within 14 days. The method, then:
(§1) The acute toxicity of the compounds was evaluated using six Imprinting Control Region (ICR) mice per groups at 8 to 12 weeks of age, with an average body weight of 25.6 g. The animals were assigned equally into 4 groups labeled as vehicle (dH2O), high dose (20 g/kg), medium dose (10 g/kg) and low dose (5 g/kg) of the compounds. Prior to administration, the animals were fasted (food but not water) overnight and for 3 to 4 h after compounds administration to eliminate any food inside the gastrointestinal tract that might complicate absorption of the test substance. […] Animals were euthanized by CO2 asphyxiation on 15th day, and serum biochemical and histological (liver and kidney) parameters were determined following the standard method. The mortality of the mice were recorded within 14 days and used to calculate the LD50 for each compound. The mice used were housed in specific pathogen free facility at the University of Malaya. This work was designed to minimize animal suffering and number of animals used, and has been approved by the Faculty of Medicine Animal Care and Use Committee (FOMIACUC, Approval No: 2014-05-07/PHAR/R/CYL) at University of Malaya. The work was reported according to ARRIVE guideline.

The nature of data set [2]: Acute toxicity (LD50) in ICR mice. The data set is classed as in vivo. The settings on record: mouse, in vivo, oral, mortality within 14 days. Here is the method:
as §1

A short description of data set [3]: ORAC antioxidant activity assay. Here is the method: Chemicals. Fluorescein sodium salt, AAPH (2,2′-Azobis(2-methylpropionamidine) dihydrochloride), quercetin dehydrate and trolox ((±)-6-Hydroxy-2,5,7,8-tetramethylchromane-2-carboxylic acid) were purchased from Sigma-Aldrich.
ORAC assay. ORAC (oxygen radical […]) assay was done based on procedures described previously with slight modifications. Compounds were diluted to a final concentration of 100μg/mL, with total reaction volume of 200μL. The assay was performed in a 96-well black microplate, with 25μL of samples, standard (trolox), blank (solvent/PBS) or positive control (quercetin). Subsequently, 150μL of working fluorescein solution was added to each well of assay plate. The plate was incubated at 37°C for at least 5 min. 25μL of AAPH working solution was then added to the wells, making up a total volume of 200μL. Fluorescence was recorded with excitation wavelength of 485nm and emission wavelength of 538nm. […] The values were expressed as trolox equivalent (TE).

Data set [4] deals with carcinoma-derived human oral keratinocyte cells (H413). Put plainly: MTT cell viability assay, H413. The settings on record: H413, 48 h treatment. The data set is classed as cell-based. The text has this:
(§2) Human prostate cancer cell line (PC3), human malignant melanoma cell line (A375), human liver hepatocellular cell line (HepG2) and human colon adenocarcinoma cell line (HT29) were purchased from American Type Culture Collection (ATCC, Manassas, VA). The human breast cancer cell line (MCF-7) was acquired from Cell Lines Service (300273; Eppelheim, Germany), human oral keratinocyte cell line (OKF6) cells and carcinoma-derived human oral keratinocyte cells (H413) (Sigma-aldrich, Saint Louis, MO) were received from Professor Ian Charles Paterson. MCF-7, A375, HT29 and HepG2 cells were grown in Dulbecco’s Modified Eagle Medium (DMEM, Life Technologies, Inc., Rockville, MD) supplemented with 10% heat-inactivated fetal bovine serum (FBS, Sigma-Aldrich, St. Louis, MO), 1% penicillin and streptomycin. PC3 cells were grown in Roswell Park Memorial Institute medium (RPMI) supplemented with 10% heat-inactivated fetal bovine serum (FBS, Sigma-Aldrich, St. Louis, MO), 1% penicillin and streptomycin. OKF6 cells were grown in Keratinocyte Serum-Free Medium (KSFM), supplemented with 10% heat-inactivated fetal bovine serum (FBS, Sigma-Aldrich, St. Louis, MO), 1% penicillin and streptomycin. H413 cells were grown in Dulbecco's Modified Eagle Medium/Ham's F-12 (DMEM/F12) supplemented with 10% heat-inactivated fetal bovine serum (FBS, Sigma-Aldrich, St. Louis, MO), 1% penicillin and streptomycin. Cells were cultured in tissue culture flasks (Corning, USA) and were kept in an incubator at 37°C in a humidified atmosphere with 5% CO2. For experimental purposes, cells in exponential growth phase (approximately 70–80% confluency) were used.
(§3) The influence of the solvents was determined by MTT assay (Mosmann, 1983). MCF-7, A375, HT29, HepG2, PC3, OKF6 and H413 cells were treated for 48 h. On the first day, 1.0 × 10^4 cells were seeded into a 96-well plate for 24 h incubation assay. The cells were incubated overnight at 37°C in 5% CO2. On the next day, the cells were treated with a two-fold dilution series of six concentrations of the solvents, and then incubated at 37°C in 5% CO2 for 48 h. MTT solution (4,5-dimethylthiazol-2-yl-2,5-diphenyltetrazoliumbromide) was added at 2 mg/mL, and after 2 h of incubation at 37°C in 5% CO2, DMSO was added to dissolve the formazan crystals. The plates were then read in Chameleon multitechnology microplate reader (Hidex, Turku, Finland) at 570 nm absorbance. The cell viability percentage after exposure to the solvents for 48 h was calculated by the previously described method. The ratio of the absorbance of treated cells to the absorbance of DMSO-treated control cells was determined as cell viability (percentage).
A general note: Tetrazolium dyes change colour on reduction, which living cells bring about.

Data set [5] has as its system human prostate cancer cell line (PC3). Put plainly: MTT cell viability assay, PC3. The data set is classed as cell-based. The settings on record: PC3, 48 h treatment.
Text: as §2, §3

The test system of data set [6] is human malignant melanoma cell line (A375). Briefly: MTT cell viability assay, A375. The data set is classed as cell-based.
Text: as §2, §3

Data set [7] deals with human liver hepatocellular cell line (HepG2). Put plainly: MTT cell viability assay, HepG2. The data set is classed as cell-based. The settings on record: HepG2, 48 h treatment.
Text: as §2, §3

Data set [8] concerns human colon adenocarcinoma cell line (HT29). Briefly: MTT cell viability assay, HT29. The data set is classed as cell-based.
Text: as §2, §3

The test system of data set [9] is human breast cancer cell line (MCF-7). Put plainly: MTT cell viability assay, MCF-7. The data set is classed as cell-based.
Text: as §2, §3

Data set [10] has as its system human oral keratinocyte cell line (OKF6). Briefly: MTT cell viability assay, OKF6. The settings on record: OKF6, 48 h treatment. The data set is classed as cell-based.
Text: as §2, §3

A further data set has as its system HepG2. The note with it: on HepG2; cited from earlier work.

On to 4-Hydroxy tamoxifen, for which the selectivity index entry in [1] is reported as “less than 2”.
Usually LD50 stands for the dose at which mortality reaches 50%. Low values mean a more toxic substance, high ones a less toxic substance. In the data set on ICR mice, `OCCO` [Pure EG, ethylene glycol] showed an LD50 of 9710 ± 1950 mg/kg.
In turn, `OCC(O)CO` [Pure Gl, glycerine] registered an LD50 at 14 days in data set [2] of 20600 ± 2160 mg/kg.
Molecule `OCCOCCOCCO` [Pure TEG, triethylene glycol] displayed an LD50 at 14 days in data set [2] of 17000 ± 2040 mg/kg.
`NC(N)=O` [Pure U, urea] had an LD50 in the data set on ICR mice above 20000 mg/kg.
`O=c1c(O)c(-c2ccc(O)c(O)c2)oc2cc(O)cc(O)c12` [Quercetin, quercetin dehydrate]: the “net AUC” value in [3] (compounds at 100μg/mL) came to 6353346. Moreover, in [3] (trolox equivalent), the “mM of Trolox per 100μg/mL” value was 0.02141 mM of Trolox per 100μg/mL and the “μM of Trolox per 100μg/mL” value is 21.411 μM of Trolox per 100μg/mL.
What is called IC50 is the concentration that gives 50% inhibition. On to `C[N+](C)(C)CCO.[Cl-]` [Solvent 2, choline chloride], for which the IC50 in data set [4] was found to be 19.61 ± 4.19 mg/L; in [5], 11.94 ± 1.35 mg/L; in data set [6] (A375, 48 h treatment) it was 7.584 ± 2.31 mg/L; in data set [7] it was 14.26 ± 1.43 mg/L; in [8] (HT29, 48 h treatment), 13.41 ± 1.73 mg/L; in data set [9] (MCF-7, 48 h treatment), 8.95 ± 0.98 mg/L. The molecule further returned a half-inhibitory concentration (IC50) in data set [10] of 26.53 ± 1.97 mg/L.
Turning to `OCC(O)CO` [Solvent 3, glycerine], the IC50 was 101.02 ± 18.54 mg/L (≈ 1100 µM) in data set [4]; 42.38 ± 3.96 mg/L (≈ 460 µM) in [5]; 67.65 ± 6.83 mg/L (≈ 735 µM) in data set [6] (A375, 48 h treatment); 68.85 ± 11.74 mg/L (≈ 748 µM) in data set [7]; 63.80 ± 7.23 mg/L (≈ 693 µM) in data set [8] (HT29, 48 h treatment); 74.73 ± 6.67 mg/L (≈ 811 µM) in data set [9] (MCF-7, 48 h treatment). In addition, the IC50 in data set [10] worked out at 129.31 ± 8.23 mg/L (≈ 1400 µM).
Turning to `C[N+](C)(C)CCO.[Cl-]` [Solvent 6, choline chloride], the IC50 in data set [4] came to 21.84 ± 2.65 mg/L; in data set [5], 13.60 ± 2.94 mg/L; in [6] (A375, 48 h treatment), 8.64 ± 1.75 mg/L; in data set [7] it was 12.69 ± 1.63 mg/L; in data set [8] (HT29, 48 h treatment), 11.79 ± 0.43 mg/L; in data set [9] (MCF-7, 48 h treatment) it was 13.05 ± 2.09 mg/L. The same molecule registered an IC50 in data set [10] of 24.58 ± 2.81 mg/L.
For the molecule `OCCO` [Solvent 7, ethylene glycol], the IC50 in data set [4] turned out to be 62.29 ± 8.94 mg/L (≈ 1000 µM); in [5], 32.48 ± 1.06 mg/L (≈ 523 µM); in data set [6] (A375, 48 h treatment), 40.59 ± 5.27 mg/L (≈ 654 µM); in [7], 44.33 ± 5.86 mg/L (≈ 714 µM); in data set [8] (HT29, 48 h treatment), 43.72 ± 3.97 mg/L (≈ 704 µM); in data set [9] (MCF-7, 48 h treatment), 53.91 ± 6.17 mg/L (≈ 869 µM). For the same molecule, in [10], the IC50 was determined as 75.62 ± 6.33 mg/L (≈ 1220 µM).
Consider `C[N+](C)(C)CCO.[Cl-]` [Solvent 10, choline chloride], for which the IC50 is 38.41 ± 4.03 mg/L in data set [4]; 28.88 ± 2.64 mg/L in [5]; 10.54 ± 0.34 mg/L in data set [6] (A375, 48 h treatment); 25.99 ± 1.85 mg/L in data set [7]; 18.75 ± 1.65 mg/L in data set [8] (HT29, 48 h treatment); 12.51 ± 0.71 mg/L in data set [9] (MCF-7, 48 h treatment). In addition, in data set [10], the 50% inhibitory concentration (IC50) is 32.49 ± 3.41 mg/L.
Turning to `NC(N)=O` [Solvent 11, urea], the IC50 was 20.22 ± 1.69 mg/L (≈ 337 µM) in data set [4]; 23.09 ± 5.22 mg/L (≈ 384 µM) in data set [5]; 11.21 ± 1.38 mg/L (≈ 187 µM) in data set [6] (A375, 48 h treatment); 24.23 ± 4.02 mg/L (≈ 403 µM) in data set [7]; 13.93 ± 2.16 mg/L (≈ 232 µM) in data set [8] (HT29, 48 h treatment); 28.22 ± 1.05 mg/L (≈ 470 µM) in data set [10].
As to `C[N+](C)(C)CCO.[Cl-]` [Solvent 14, choline chloride], the IC50 amounted to 21.49 ± 0.57 mg/L in data set [4]; 10.18 ± 0.95 mg/L in [5]; 12.75 ± 1.23 mg/L in data set [6] (A375, 48 h treatment); 14.60 ± 2.53 mg/L in data set [7]; 8.939 ± 1.43 mg/L in data set [8] (HT29, 48 h treatment); 12.23 ± 0.39 mg/L in data set [9] (MCF-7, 48 h treatment). This molecule returned an IC50 in data set [10] of 21.74 ± 1.04 mg/L.
For `OCCOCCOCCO` [Solvent 15, triethylene glycol], the IC50 in [4] (Homo sapiens, Keratinocyte, read-out: IC50) amounted to 32.1 ± 3.1 mg/L (≈ 214 µM); in data set [5] (Homo sapiens, read-out: IC50) it was 23.1 ± 1.32 mg/L (≈ 154 µM); in [6] (Homo sapiens, A-375, A375, 48 h treatment, read-out: IC50) it was 14.6 ± 0.64 mg/L (≈ 97.4 µM); in data set [7] (Homo sapiens, read-out: IC50), 33.9 ± 4.94 mg/L (≈ 226 µM); in data set [8] (Homo sapiens, HT-29, HT29, 48 h treatment, read-out: IC50) it was 20.2 ± 2.75 mg/L (≈ 135 µM); in [9] (Homo sapiens, MCF7, MCF-7, 48 h treatment, read-out: IC50), 18.3 ± 2.15 mg/L (≈ 122 µM). Also, in [10] (Homo sapiens, read-out: IC50), the half-inhibitory concentration (IC50) amounted to 29.8 ± 1.45 mg/L (≈ 198 µM).
Turning to `CCCCCCCCCC[N+](C)(C)CCCCCCCCCC` [[DDA][Sac], didecyldimethylammonium saccharinate], the IC50 in the data set with HepG2 was 4.8 µM.
Take `C[C@@]12CCC[C@]3(C)c4cc5c(O)ccc(O)c5cc4C(=O)[C@](O)(OC1)[C@H]23` [alisiaquinol]: the selectivity index entry in data set [1] was “less than 2”.
With `CC/C(=C(/CCN1CCCCC1)c1ccc(O)cc1)c1ccc(O)cc1` [piperidinyl-diethylstilbestrol], the selectivity index entry in data set [1] was “less than 2”.
